Earlier results as cited in patent US20260262633A1, “BORDEAUX MIXTURE/ORGANOSULFUR FUNGICIDE NANO-SUSPENSION DISPERSION” (priority 2023, published 2026).

In the case of basic copper sulfate, the solubility in water is listed as 1.06 µg/mL.
